Assay: Binding affinity to recombinant human CypD K175I mutant (44 to 207 residues) expressed in Escherichia coli cells assessed as dissociation constant by SPR analysis
For `CSc1ccccc1[C@H]1CCCN1C(=O)CN(C)C(=O)NCc1ccc2c(c1)[C@H]1C[C@@H](N2)[C@H](O)CO1`, the Kd was 7 µM.
Work on `Cc1onc(-c2ccncc2)c1C(=O)O` yielded a Kd of over 10000 µM.
`O=C(NCc1ccc2c(c1)[C@H]1C[C@@H](N2)[C@H](O)CO1)C(=O)N1CCCC1` showed a Kd of over 1500 µM.
`O=C(NCc1ccc2c(c1)[C@@H]1C[C@H](N2)[C@H](O)CO1)C(=O)N1CCCC1` showed a Kd of 217 µM.
Work on `CSc1ccccc1[C@H]1CCCN1C(=O)CNC(=O)CCc1ccc2c(c1)[C@@H]1C[C@H](N2)[C@H](O)CO1` yielded a Kd of 39 µM.
With `O=C(NCc1ccccn1)C(=O)NC1CCCC1` the Kd was 1100 µM.
`CCN1Cc2cc(NC(=O)NCC(=O)N3CCC[C@@H]3c3ccccc3SC)ccc2NCCC1=O` showed a Kd of 260 µM.
For `O=C(CN1C(=O)[C@@H]2[C@@H]3CC[C@@H](C3)[C@@H]2C1=O)NCc1ccc2c(c1)[C@H]1C[C@@H](N2)[C@H](O)CO1`, the Kd was 0.66 µM.
`CSc1ccccc1[C@H]1CCCN1C(=O)C(=O)NCc1ccc2c(c1)[C@H]1C[C@@H](N2)[C@H](O)CO1` showed a Kd of 184 µM.
For `Nc1ccc(CCNC(=O)CN2C(=O)C3C4CCC(C4)C3C2=O)cc1` (stereo not given), the Kd was over 200 µM.
In the case of `CCN1Cc2cc(NC(=O)CN3C(=O)C4C(C3=O)[C@H]3CC[C@@H]4C3)ccc2NCCC1=O` (stereo not given in full), the Kd is reported as over 6000 µM.
Molecule `CCN1Cc2cc(CCC(=O)NCC(=O)N3CCC[C@@H]3c3ccccc3SC)ccc2NCCC1=O` has a Kd of 2.3 µM.
Work on `CCN1Cc2cc3c(cc2NCCC1=O)OCO3` yielded a Kd of 7500 µM.
With `CSc1ccccc1[C@@H]1CCCN1C(=O)C(=O)NCc1ccc2c(c1)[C@H]1C[C@@H](N2)[C@H](O)CO1` the Kd was over 240 µM.
Work on `CCN1Cc2cc(CNC(=O)NCC(=O)N3CCC[C@@H]3c3ccccc3SC)ccc2NCCC1=O` yielded a Kd of 0.18 µM.
`CCn1nnc(NC(=O)c2ccccc2)n1` showed a Kd of 3900 µM.
Work on `O=C(CN1C(=O)[C@@H]2[C@H]3CC[C@H](C3)[C@@H]2C1=O)NCc1ccc2c(c1)[C@H]1C[C@@H](N2)[C@H](O)CO1` yielded a Kd of 1.2 µM.
With `O[C@@H]1CO[C@@H]2C[C@H]1Nc1ccc(F)cc12` the Kd was 7100 µM.
For `CCN1Cc2cc(CCC(=O)NCCC(=O)N3CCC[C@@H]3c3ccccc3SC)ccc2NCCC1=O`, the Kd was 420 µM.
With `O=C(O)CN1C(=O)[C@@H]2[C@@H]3CC[C@@H](C3)[C@@H]2C1=O` the Kd was over 10000 µM.
